In PMC7265491, “Inhibition of LIPG phospholipase activity suppresses tumor formation of human basal-like triple-negative breast cancer” (Scientific Reports, 2020):

Target: T1, LIPG (endothelial lipase) (Homo sapiens, UniProt Q9Y5X9)
T1 construct: LIPG overexpressed in MDA-MB-468 cells
T1 sequence (Q9Y5X9 21-500): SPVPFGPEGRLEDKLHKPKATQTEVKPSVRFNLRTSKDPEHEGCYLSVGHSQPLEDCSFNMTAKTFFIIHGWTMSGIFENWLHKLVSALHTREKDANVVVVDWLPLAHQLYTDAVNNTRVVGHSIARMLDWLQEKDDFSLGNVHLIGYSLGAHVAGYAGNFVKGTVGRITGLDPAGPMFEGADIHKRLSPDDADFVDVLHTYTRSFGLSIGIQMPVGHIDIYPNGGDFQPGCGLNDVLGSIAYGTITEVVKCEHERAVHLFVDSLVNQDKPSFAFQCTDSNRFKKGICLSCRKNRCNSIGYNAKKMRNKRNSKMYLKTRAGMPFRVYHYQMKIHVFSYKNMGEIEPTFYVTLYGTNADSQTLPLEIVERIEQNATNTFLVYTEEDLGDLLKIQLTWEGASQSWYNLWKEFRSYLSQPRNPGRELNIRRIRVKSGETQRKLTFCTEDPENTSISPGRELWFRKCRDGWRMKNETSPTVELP
Assay: cell-based fluorogenic phospholipase A1 assay (PED-A1 substrate) with LIPG-overexpressing MDA-MB-468 cells, parental-cell background subtracted

IC50: 2.17 µM
Compound: O=C(O)c1cc(C(F)(F)F)ccc1N1CC[C@H](OCc2ccccn2)C1 [XEN445]
